The values below are quoted from earlier work in patent publication US6858744B2, “Dihydoxyhexanoic acid derivatives, their intermediates, and methods of making” (Pfizer Inc., priority 2002, dated 2005).

Molecules are shown by their SMILES.

As to `O=C(O)C(F)(F)F` [trifluoro-acetic acid], the pKa is recorded as 0.3.

As a reminder, the pKa is the pH at which an ionisable group is half protonated.
